US20090325964A1, “Piperazine Metabotropic Glutamate Receptor 5 (MGLUR5) Negative Allosteric Modulators For Anxiety/Depression” (Wyeth, priority 2008, published 2009)
pIC50, pKi: −log10 of the molar value.

Columns and labels:
mGluR5 = mGluR5 (Rattus norvegicus, UniProt P31424); assay: IC50 column under 'Biological Activity' (assay not identified in the shown text; not the binding Ki)
rat mGluR5 receptor = molecular target: T1, rat mGluR5 receptor (Rattus norvegicus, UniProt P31424); assay: [3H]-MPEP displacement binding assay, HEK-293 cell membranes expressing rat mGluR5; settings: [3H]-MPEP displacement, rat mGluR5; read-out: Median Ki
T1 construct: expressed in transfected cells; host or cells: HEK-293
T1 sequence (P31424 21-1203): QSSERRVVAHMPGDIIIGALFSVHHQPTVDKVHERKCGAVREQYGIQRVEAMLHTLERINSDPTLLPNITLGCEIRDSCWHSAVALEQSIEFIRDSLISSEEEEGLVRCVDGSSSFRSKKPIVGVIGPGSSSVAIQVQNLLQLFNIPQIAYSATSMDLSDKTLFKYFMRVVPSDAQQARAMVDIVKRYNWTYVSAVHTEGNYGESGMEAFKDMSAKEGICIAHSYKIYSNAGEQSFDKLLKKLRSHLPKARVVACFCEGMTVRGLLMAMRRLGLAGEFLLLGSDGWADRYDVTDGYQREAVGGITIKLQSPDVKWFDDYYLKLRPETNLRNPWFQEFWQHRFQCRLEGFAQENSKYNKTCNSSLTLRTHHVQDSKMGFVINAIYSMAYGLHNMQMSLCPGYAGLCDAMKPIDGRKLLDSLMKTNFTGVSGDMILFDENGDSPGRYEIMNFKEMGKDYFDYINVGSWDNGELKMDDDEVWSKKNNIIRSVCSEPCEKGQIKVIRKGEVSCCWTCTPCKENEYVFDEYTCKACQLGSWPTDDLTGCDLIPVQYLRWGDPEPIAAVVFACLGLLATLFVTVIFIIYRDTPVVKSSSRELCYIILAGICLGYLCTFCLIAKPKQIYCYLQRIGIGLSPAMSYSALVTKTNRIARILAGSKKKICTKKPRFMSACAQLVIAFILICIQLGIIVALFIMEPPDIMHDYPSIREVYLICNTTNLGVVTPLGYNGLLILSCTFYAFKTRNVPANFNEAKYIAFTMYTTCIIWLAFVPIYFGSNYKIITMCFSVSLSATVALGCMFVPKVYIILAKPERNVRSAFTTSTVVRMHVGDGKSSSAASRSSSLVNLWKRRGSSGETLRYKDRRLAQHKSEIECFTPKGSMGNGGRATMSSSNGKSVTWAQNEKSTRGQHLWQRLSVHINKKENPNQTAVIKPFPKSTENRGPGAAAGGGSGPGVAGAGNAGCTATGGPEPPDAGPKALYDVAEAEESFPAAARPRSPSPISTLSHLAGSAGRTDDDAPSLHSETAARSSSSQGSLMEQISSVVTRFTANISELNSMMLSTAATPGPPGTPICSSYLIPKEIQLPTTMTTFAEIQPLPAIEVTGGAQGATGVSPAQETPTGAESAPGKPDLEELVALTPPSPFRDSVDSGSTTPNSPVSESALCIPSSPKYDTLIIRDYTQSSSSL
How it was run: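 Membranes from HEK-293 cells expressing rat mGluR5 (12-25 μg protein), incubated 60 min at room temperature with 4 nM [3H]-MPEP in 50 mM Tris pH 7.5, then filtered. Nonspecific binding defined with 10 μM MPEP.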

mGluR5, sequence (P31424 21-1203): as above

SMILES	pIC50 (mGluR5)	pKi (rat mGluR5 receptor)
COc1ccc(C(=O)N2CCN(c3ncccc3Cl)CC2)cc1C#Cc1ccccn1 [Compound 186, 1-(3-chloropyridin-2-yl)-4-[4-methoxy-3-(pyridin-2-ylethynyl)benzoyl]piperazine]	7.43	7.72
COc1ccc(C(=O)N2CCN(Cc3ccc(F)cc3)CC2)cc1C#Cc1ccccn1 [Compound 268, 1-(4-fluorobenzyl)-4-[4-methoxy-3-(pyridin-2-ylethynyl)benzoyl]piperazine]	6.66	7.24
COc1ccc(C(=O)N2CCN(c3ccccc3Cl)C(=O)C2)cc1C#Cc1ccccn1 [Compound 328, 1-(2-chlorophenyl)-4-{[4-methoxy-3-(pyridin-2-ylethynyl)phenyl]carbonyl}piperazin-2-one]	7.30	7.02
COc1ccc(C(=O)N2CCN(c3ccc(Cl)cc3)CC2)cc1C#Cc1ccccn1 [Compound 217, 1-(4-chlorophenyl)-4-[4-methoxy-3-(pyridin-2-ylethynyl)benzoyl]piperazine]	6.47	7.57
COc1ccnc(N2CCN(C(=O)c3ccc(C)c(C#Cc4ccccn4)c3)CC2)n1 [Compound 308, 4-Methoxy-2-{4-[4-methyl-3-(pyridin-2-ylethynyl)benzoyl]piperazin-1-yl}pyrimidine]	6.97	8.10
COc1ccc(C(=O)N2CCN(C(=O)c3ccc(OC)c(C#Cc4ccccn4)c3)CC2)cc1 [Compound 265, 1-(4-methoxybenzoyl)-4-[4-methoxy-3-(pyridin-2-ylethynyl)benzoyl]piperazine]	< 6.00	7.27
COc1ccnc(N2CCN(C(=O)c3ccc(OC)c(C#Cc4ccccn4)c3)CC2)n1 [Compound 200, 4-methoxy-2-{4-[4-methoxy-3-(pyridin-2-ylethynyl)benzoyl]piperazin-1-yl}pyrimidine]	7.62	7.68
COc1ccc(C(=O)N2CCN(c3ccccc3)CC2)cc1C#Cc1ccccn1 [Compound 292, 1-[4-methoxy-3-(pyridin-2-ylethynyl)benzoyl]-4-phenylpiperazine]	6.68	7.85
Cc1ccc(C(=O)N2CCN(c3noc4ccccc34)CC2)cc1C#Cc1ccccn1 [Compound 307, 3-{4-[4-Methyl-3-(pyridin-2-ylethynyl)benzoyl]piperazin-1-yl}-1,2-benzisoxazole]	7.30	9.00
COc1ccc(C(=O)N2CCN(c3ccc(C(F)(F)F)cn3)CC2)cc1C#Cc1ccccn1 [Compound 183, 1-[4-methoxy-3-(pyridin-2-ylethynyl)benzoyl]-4-[5-(trifluoromethyl)pyridin-2-yl]piperazine]	7.18	7.39
COc1ccc(C(=O)N2CCN(Cc3cccc(F)c3)CC2)cc1C#Cc1ccccn1 [Compound 267, 1-(3-fluorobenzyl)-4-[4-methoxy-3-(pyridin-2-ylethynyl)benzoyl]piperazine]	6.78	7.24
COc1ccc(C(=O)N2CCN(c3ncc(F)c(N)n3)CC2)cc1C#Cc1ccccn1 [Compound 300, 5-fluoro-2-{4-[4-methoxy-3-(pyridin-2-ylethynyl)benzoyl]piperazin-1-yl}pyrimidin-4-amine]	6.70	7.52
COc1ccc(C(=O)N2CCN(c3cc(C)nc(C(C)C)n3)CC2)cc1C#Cc1ccccn1 [Compound 220, 2-isopropyl-4-{4-[4-methoxy-3-(pyridin-2-ylethynyl)benzoyl]piperazin-1-yl}-6-methylpyrimidine]	< 6.00	7.05
COc1ccc(C(=O)N2C[C@H]3C[C@H]2CN3c2ccc(Cl)cc2)cc1C#Cc1ccccn1 [Compound 199, (1R,4S)-2-(4-chlorophenyl)-5-[4-methoxy-3-(pyridin-2-ylethynyl)benzoyl]-2,5-diazabicyclo[2.2.1]heptane]	< 6.00	7.12
COc1ccc(C(=O)N2CCN(c3ccccc3)CC2C)cc1C#Cc1ccccn1 (stereo not drawn) [Compound 250, 1-[4-methoxy-3-(pyridin-2-ylethynyl)benzoyl]-2-methyl-4-phenylpiperazine]	7.02	7.62
COc1ccc(C(=O)N2CCN(c3ccc(C(C)=O)cc3)CC2)cc1C#Cc1ccccn1 [Compound 237, 1-(4-{4-[4-methoxy-3-(pyridin-2-ylethynyl)benzoyl]piperazin-1-yl}phenyl)ethanone]	6.92	7.68
CCOc1ccc(C(=O)N2CCN(c3noc4ccccc34)CC2)cc1C#Cc1ccccn1 [Compound 322, 3-{4-[4-ethoxy-3-(pyridin-2-ylethynyl)benzoyl]piperazin-1-yl}-1,2-benzisoxazole]	7.46	8.22
COc1ccc(C(=O)N2CCN(c3nc4ccccc4o3)CC2)cc1C#Cc1ccccn1 [Compound 257, 2-{4-[4-methoxy-3-(pyridin-2-ylethynyl)benzoyl]piperazin-1-yl}-1,3-benzoxazole]	6.96	7.42
COc1ccc(C(=O)N2CCN(S(=O)(=O)c3ccc(Cl)s3)CC2)cc1C#Cc1ccccn1 [Compound 225, 1-[(5-chloro-2-thienyl)sulfonyl]-4-[4-methoxy-3-(pyridin-2-ylethynyl)benzoyl]piperazine]	< 6.00	7.29
COc1cnc(N2CCN(C(=O)c3ccc(OC)c(C#Cc4ccccn4)c3)CC2)nc1 [Compound 299, 5-methoxy-2-{4-[4-methoxy-3-(pyridin-2-ylethynyl)benzoyl]piperazin-1-yl}pyrimidine]	6.92	7.60
COc1ccnc(N2CCN(C(=O)c3ccc(F)c(C#Cc4ccccn4)c3)CC2)n1 [Compound 317, 2-{4-[4-fluoro-3-(pyridin-2-ylethynyl)benzoyl]piperazin-1-yl}-4-methoxypyrimidine]	7.52	7.70
COc1ccc(C(=O)N2CCN(c3nsc4ccccc34)CC2)cc1C#Cc1ccccn1 [Compound 201, 3-{4-[4-methoxy-3-(pyridin-2-ylethynyl)benzoyl]piperazin-1-yl}-1,2-benzisothiazole]	7.62	8.52
COc1ccc(C(=O)N2CCCN(c3ccccn3)CC2)cc1C#Cc1ccccn1 [Compound 205, 1-[4-methoxy-3-(pyridin-2-ylethynyl)benzoyl]-4-pyridin-2-yl-1,4-diazepane]	< 6.00	6.88
COc1ccc(C(=O)N2CCN(c3cccc(C)c3C)CC2)cc1C#Cc1ccccn1 [Compound 219, 1-(2,3-dimethylphenyl)-4-[4-methoxy-3-(pyridin-2-ylethynyl)benzoyl]piperazine]	< 6.00	6.77
COc1ccc(C(=O)N2CCN(c3ccc(Cl)nn3)CC2)cc1C#Cc1ccccn1 [Compound 303, 3-chloro-6-{4-[4-methoxy-3-(pyridin-2-ylethynyl)benzoyl]piperazin-1-yl}pyridazine]	< 6.00	7.51
COc1ccc(C(=O)N2CCN(c3cccc(F)c3)CC2)cc1C#Cc1ccccn1 [Compound 223, 1-(3-fluorophenyl)-4-[4-methoxy-3-(pyridin-2-ylethynyl)benzoyl]piperazine]	6.99	8.00
COc1ccc(C(=O)N2CCN(c3nccnc3C#N)CC2)cc1C#Cc1ccccn1 [Compound 193, 3-{4-[4-methoxy-3-(pyridin-2-ylethynyl)benzoyl]piperazin-1-yl}pyrazine-2-carbonitrile]	7.34	7.47
